According to the supplement of paper PMC10307832:

What was measured:
Test in all cases: relative viability (nuclei count vs DMSO), 5 days (fraction); higher = more cells survive
[1] = compound: O[C@H]1CC[C@H](Nc2ncc3nc(Nc4c(F)cc(F)cc4F)n([C@H]4CCOC4)c3n2)CC1 [Tanzisertib] + CS(=O)(=O)CCNCc1ccc(-c2ccc3ncnc(Nc4ccc(OCc5cccc(F)c5)c(Cl)c4)c3c2)o1 [Lapatinib] (partner 2 µM)
How it was run: (§1)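 A single step with final 0.05% Triton X-100, 1% formaldehyde and 1 ug/ml Hoechst fixed the cells and stained nuclei 5 days after treatment. Lung cancer cell lines in 1536-well plates had been treated by pin tool the day after seeding with one drug alone or a fixed anchor-drug dose plus five library-drug doses (not always all listed) in √10 steps, and nuclei were counted on 4× images. Relative viability is the ratio of nuclei in treated wells to nuclei in vehicle wells, taken as the median of duplicate plates.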

[2] = compound: C[C@@H](N)c1ccc(C(=O)Nc2ccnc3[nH]ccc23)cc1 + CC(=O)Nc1cccc(-n2c(=O)n(C3CC3)c(=O)c3c(Nc4ccc(I)cc4F)n(C)c(=O)c(C)c32)c1 [Trametinib] (partner 0.02 µM)
How it was run: as §1

[3] = compound: C1CNCCC1C2=CC(=NN2)C3=CC=NC=C3 + Cc1nc(NC(=O)N2CCC[C@H]2C(N)=O)sc1-c1ccnc(C(C)(C)C(F)(F)F)c1 [Alpelisib] (partner 2 µM)
How it was run: as §1

[4] = compound: C[C@@H](N)c1ccc(C(=O)Nc2ccnc3[nH]ccc23)cc1 + O=C(c1cc(Cc2n[nH]c(=O)c3ccccc23)ccc1F)N1CCN(C(=O)C2CC2)CC1 [Olaparib] (partner 8 µM)
How it was run: as §1

Cell Line	relative viability ([1]; first compound 0.08 µM)	relative viability ([1]; first compound 0.253 µM)	relative viability ([1]; first compound 0.8 µM)	relative viability ([1]; first compound 2.53 µM)	relative viability ([1]; first compound 8 µM)	relative viability ([2]; first compound 0.04 µM)	relative viability ([2]; first compound 0.1265 µM)	relative viability ([2]; first compound 0.4 µM)	relative viability ([2]; first compound 1.265 µM)	relative viability ([2]; first compound 4 µM)	relative viability ([3]; first compound 0.08 µM)	relative viability ([3]; first compound 0.8 µM)	relative viability ([3]; first compound 2.53 µM)	relative viability ([3]; first compound 8 µM)	relative viability ([4]; first compound 0.04 µM)	relative viability ([4]; first compound 0.1265 µM)	relative viability ([4]; first compound 0.4 µM)	relative viability ([4]; first compound 1.265 µM)	relative viability ([4]; first compound 4 µM)
201T	1.04	1.02	0.997	1.02	1.07	0.701	0.712	0.733	0.758	0.815	1.06	0.841	1.04	1.04	0.867	0.883	0.818	0.895	0.949
A549	1.04	0.92	0.921	1.05	1.07						0.55	0.65	0.881	0.848	0.303	0.251	0.575	0.0626	0.465
A-427	1.19	1.18	1.04	1.04	1.12	0.88	0.876	0.953	0.73	0.662	1.05	1.04	1.07	1.06	0.698	0.817	0.762	0.589	0.649
ABC-1	1.17	1		1.36	1.41						0.997	0.857	1.19	1.13	0.511	0.752	0.942	0.953	0.693
BEN	0.773	0.806	0.721	0.795	0.712	1.01	0.87	0.984	1.37	0.85	0.712	1.07	0.936	0.984	1.04	1.08	1.11	1.27	0.542
CAL-12T	0.635	0.617	0.795	0.762	0.72	0.34	0.408	0.38	0.447	0.409	0.929	1.56	1.51	1.28	0.702	0.882	0.815	0.841	0.724
COR-L23	1.12	0.954	0.961	1.07	0.98	0.414	0.591	0.604	0.262	0.389	0.821	0.925	0.969	0.736	0.296	0.341	0.322	0.277	0.176
COR-L 105	0.379	0.355	0.353	0.332	0.275	0.441	0.518	0.449	0.417	0.458	0.954	1.05	1.11	0.852	0.605	0.636	0.763	0.717	0.564
Calu-6	1.14	1.11	1.07	1.05	1						0.896	1.05	1.03	1.04	0.602	0.592	0.547	0.533	0.45
ChaGo-K-1						0.888	0.863	0.823	0.894	0.789					0.418	0.426	0.414	0.438	0.345
